Measurements published in patent US20220274954A1, “SUBSTITUTED N-PHENYL-N-AMINOUARCILS AND SALTS THEREOF AND USE THEREOF AS HERBICIDAL AGENTS” (Bayer Aktiengesellschaft, priority 2019, published 2022).

What was measured:
Type in all cases: in vivo
Glycine max = test: Post-emergence crop plant compatibility; details: application rate 5 g/ha
In short: (§1)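 Greenhouse plants in sandy loam were sprayed at the one-leaf stage, 2–3 weeks after sowing, with WP or EC formulations in water plus 0.5% additive at […]. Damage was rated visually after about 3 weeks as % versus untreated controls, where 100% means dead plants and 0% means like controls.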

Oryza sativa = test: Post-emergence crop plant compatibility
In short: as §1

Triticum aestivum = test: Post-emergence crop plant compatibility; details: application rate 1.25 g/ha
In short: as §1

Zea mays = test: Post-emergence crop plant compatibility; details: application rate 1.25 g/ha
In short: as §1

Digitaria sanguinalis = test: Post-emergence herbicidal action; details: 504 h, read-out: Digitaria sanguinalis (efficacy in %)
In short: (§2)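 Plants grown from seed in sandy loam in the greenhouse were sprayed at the one-leaf stage, 2 to 3 weeks after sowing, with WP or EC formulations in water plus 0.5% additive at 20 g/ha or less. Activity was rated visually after about 3 weeks against untreated controls (100% = plants died, 0% = like control).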

Echinochloa crus-galli = test: Post-emergence herbicidal action; details: Echinochloa crus-galli, 504 h, read-out: Echinochloa crus-galli (efficacy in %)
In short: as §2

Abutilon theophrasti = test: Post-emergence herbicidal action; details: Abutilon theophrasti, 504 h, read-out: Abutilon theophrasti (efficacy in %)
In short: as §2

Matricaria inodora = test: Post-emergence herbicidal action; details: Tripleurospermum inodorum, 504 h, read-out: Matricaria inodora (efficacy in %)
In short: as §2

Hordeum murinum = test: Post-emergence herbicidal action
In short: as §2

Veronica persica = test: Post-emergence herbicidal action; details: Veronica persica, 504 h, read-out: Veronica persica (efficacy in %)
In short: as §2

Polygonum convolvulus = test: Post-emergence herbicidal action; details: Fallopia convolvulus, 504 h, read-out: Polygonum convolvulus (efficacy in %)
In short: as §2

Lolium rigidum = test: Post-emergence herbicidal action; details: application rate 20 g/ha
In short: as §2

Pharbitis purpurea = test: Post-emergence herbicidal action; details: Ipomoea purpurea, 504 h, read-out: Pharbitis purpurea (efficacy in %)
In short: as §2

Stellaria media = test: Post-emergence herbicidal action; details: application rate 5 g/ha
In short: as §2

Amaranthus retroflexus = test: Post-emergence herbicidal action; details: Amaranthus retroflexus, 504 h, read-out: Amaranthus retroflexus (efficacy in %)
In short: as §2

Viola tricolor = test: Post-emergence herbicidal action; details: Viola tricolor, 504 h, read-out: Viola tricolor (efficacy in %)
In short: as §2

Setaria viridis = test: Post-emergence herbicidal action; details: 504 h, read-out: Setaria viridis (efficacy in %)
In short: as §2

COC(=O)COc1ncccc1Sc1cc(-n2c(=O)cc(C(F)(F)F)n(N)c2=O)c(F)cc1Cl [I.1-441, Methyl {[3-({5-[3-amino-2,6-dioxo-4-(trifluoromethyl)-3,6-dihydropyrimidin-1(2H)-yl]-2-chloro-4-fluorophenyl}sulfanyl)pyridin-2-yl]oxy}acetate]
80%: pest or weed control at 5 g/ha (Echinochloa crus-galli; application rate 5 g/ha) | Hordeum murinum (efficacy in %) (Hordeum murinum; application rate 5 g/ha) | pest or weed control at 5 g/ha (Polygonum convolvulus; application rate 5 g/ha) | Lolium rigidum (efficacy in %) (Lolium rigidum)
10%: Oryza sativa (efficacy in %) (Oryza sativa; application rate 1.25 g/ha)
90%: pest or weed control at 5 g/ha (Digitaria sanguinalis; application rate 5 g/ha)
100%: pest or weed control at 20 g/ha (Digitaria sanguinalis; application rate 20 g/ha) | pest or weed control at 20 g/ha (Echinochloa crus-galli; application rate 20 g/ha) | pest or weed control at 5 g/ha (Abutilon theophrasti; application rate 5 g/ha) | pest or weed control at 20 g/ha (Abutilon theophrasti; application rate 20 g/ha) | pest or weed control at 5 g/ha (Matricaria inodora; application rate 5 g/ha) | pest or weed control at 20 g/ha (Matricaria inodora; application rate 20 g/ha) | Hordeum murinum (efficacy in %) (Hordeum murinum; application rate 20 g/ha) | pest or weed control at 5 g/ha (Veronica persica; application rate 5 g/ha) | pest or weed control at 20 g/ha (Veronica persica; application rate 20 g/ha) | pest or weed control at 20 g/ha (Polygonum convolvulus; application rate 20 g/ha) | pest or weed control at 5 g/ha (Pharbitis purpurea; application rate 5 g/ha) | pest or weed control at 20 g/ha (Pharbitis purpurea; application rate 20 g/ha) | Stellaria media (efficacy in %) (Stellaria media) | pest or weed control at 5 g/ha (Amaranthus retroflexus; application rate 5 g/ha) | pest or weed control at 20 g/ha (Amaranthus retroflexus; application rate 20 g/ha) | pest or weed control at 5 g/ha (Viola tricolor; application rate 5 g/ha) | pest or weed control at 20 g/ha (Viola tricolor; application rate 20 g/ha) | pest or weed control at 5 g/ha (Setaria viridis; application rate 5 g/ha) | pest or weed control at 20 g/ha (Setaria viridis; application rate 20 g/ha)
20%: Glycine max (efficacy in %) (Glycine max) | Oryza sativa (efficacy in %) (Oryza sativa; application rate 5 g/ha) | Triticum aestivum (efficacy in %) (Triticum aestivum) | Zea mays (efficacy in %) (Zea mays)
